Laboratory results published in article PMC4728560 (Scientific Reports, 2016).

Tested on: Bcl-xL-Y101K
Test: Heterocomplex formation with Bcl-xL-Y101K mutant
Type: binding, human
Protocol: When not specified, proteins tested for binding experiments were mixed at 100 μM, dialyzed against 10 mM CHES pH 9, 50 mM NaCl, 1 mM DTT or TCEP, depending on the analysis, and heated overnight at 30 °C.
For binding experiments, 100 to 200PL of protein mixture were loaded on a size exclusion chromatography (S200, GE Healthcare) column, while elution profiles were measured by UV absorption at 280 nm.
SEC-MALS experiments were performed on a multi-angle light scattering detector (miniDAWN TREOS, Wyatt Technologies) coupled in-line with SEC and an interferometric refractometer (Optilab T-rEX, Wyatt Technologies). See Supplementary Information for full details.
Prior to any mass spectrometry experiment, protein buffer was exchanged twice against a 50 mM ammonium acetate (NH4Ac) solution at pH 9.0 using microcentrifuge gel filtration columns (Zeba 0.5 ml, Thermo Scientific, Rockford, IL). Protein concentration was determined spectrophotometrically. […]
Gel filtration. For binding experiments, 100 to 200PL of protein mixture were loaded on a size exclusion chromatography (S200, GE Healthcare) column, while elution profiles were measured by UV absorption at 280nm. […]
For MALS experiments, the molar mass was determined by construction of Debye plot using Zimm formalism (plot of K*c/R(T) as a function of sin2(T/2)) at 0.5 and 1sec data intervals, for Superdex S200 column. […]

TCTP: Translationally Controlled Tumor Protein (TCTP/tpt1), recombinant full-length
complex formation with Bcl-xL-Y101K mutant: unable to form heterocomplexes
